Common to all, as to assay: MIC, standard microdilution
(In general: Dilution methods test growth across graded concentrations, often in twofold steps.)

The subject of one assay is St. pneumoniae 1/4. In kind it is cell-based, Streptococcus pneumoniae. As to conditions: for MIC: Streptococcus pneumoniae, read-out: minimum inhibitory concentration (MIC). The source says:
(§1) The antibacterial activities of the compounds have been determined by standard microdilution technique (National Committee for Clinical Laboratory Standards. 1997. Methods for dilution antimicrobial susceptibility tests for bacteria that grow aerobically, 4th edition. Approved standard M7-A4. National Committee for Clinical Laboratory Standards, Wayne, Pa.).

The test system of the next assay is St. pneumoniae 1/1. In kind it is cell-based, Streptococcus pneumoniae. As to conditions: for MIC: Streptococcus pneumoniae, read-out: minimum inhibitory concentration (MIC).
From the text: as §1

The subject of the next assay is St. pneumoniae 12288. In kind it is cell-based, Streptococcus pneumoniae. As to conditions: for MIC: Streptococcus pneumoniae, read-out: minimum inhibitory concentration (MIC).
From the text: as §1

In the next assay the test system is St. pneumoniae SL199T. It is filed as cell-based, Streptococcus pneumoniae. As to conditions: for MIC: Streptococcus pneumoniae, read-out: minimum inhibitory concentration (MIC).
From the text: as §1

A further assay deals with S. aureus 1086. In kind it is cell-based, Staphylococcus aureus. The note with it: for MIC: Staphylococcus aureus, read-out: minimum inhibitory concentration (MIC).
From the text: as §1

In another assay the test system is S. aureus ATCC29213. In kind it is cell-based, Staphylococcus aureus. The note with it: for MIC: Staphylococcus aureus, read-out: minimum inhibitory concentration (MIC).
From the text: as §1

The subject of another assay is S. aureus 745. It is filed as cell-based, Staphylococcus aureus. As to conditions: for MIC: Staphylococcus aureus, read-out: minimum inhibitory concentration (MIC).
From the text: as §1

A further assay relates to E. coli ATCC25922. In kind it is cell-based. The note with it: for MIC: Escherichia coli, read-out: minimum inhibitory concentration (MIC).
From the text: as §1

Assay [1] relates to P. aeruginosa ATCC27853 (+Ery. 32 μg/ml). In kind it is cell-based.
From the text: as §1

Structures are written as SMILES. ≈ marks a conversion by molar mass, not a printed value.

Turning to `CC[C@H]1OC(=O)[C@H](C)C(=O)[C@H](C)[C@@H](O[C@@H]2O[C@H](C)C[C@H](N(C)C)[C@H]2O)[C@](C)(OC)C[C@@H](C)C(=O)[C@H](C)[C@H]2[C@H](SCCc3ccccc3)C(=O)O[C@@]21C` [Compound I-1, (3S,3aR,4R,6R,8R,9R,10R,12R,15R,15aS)-15-Ethyloctahydro-8-methoxy-4,6,8,10,12,15a-hexamethyl-3-[[2-phenylethyl]thio]-9-[[3,4,6-trideoxy-3-(dimethylamino)-β-D-xylo-hexopyranosyl]oxy]-2H-furo[2,3-c]oxacyclotetradecin-2,5,11,13(3H,6H,12H)-tetrone], the MIC in the assay on St. pneumoniae 1/4 is 1 mg/L (≈ 1.34 µM); with St. pneumoniae 1/1 it was at most 0.5 mg/L; in the assay with St. pneumoniae 12288, 32 mg/L (≈ 42.8 µM); with St. pneumoniae SL199T, 4 mg/L (≈ 5.35 µM); in the assay with S. aureus 1086, at most 0.25 mg/L; with S. aureus ATCC29213 it was at most 0.25 mg/L. Moreover, the MIC in the assay on S. aureus 745 and in the assay with E. coli ATCC25922 was over 16 mg/L each time. Moreover, in assay [1], the “minimum inhibitory concentration (MIC)” value was over 16 mg/L.

As for `CC[C@H]1OC(=O)[C@H](C)C(=O)[C@H](C)[C@@H](O[C@@H]2O[C@H](C)C[C@H](N(C)C)[C@H]2O)[C@](C)(OC)C[C@@H](C)C(=O)[C@H](C)[C@H]2[C@H](Sc3ccccc3)C(=O)O[C@@]21C` [Compound I-3, (3S,3aR,4R,6R,8R,9R,10R,12R,15R,15aS)-15-Ethyloctahydro-8-methoxy-4,6,8,10,12,15a-hexamethyl-3-[phenylthio]-9-[[3,4,6-trideoxy-3-(dimethylamino)-β-D-xylo-hexopyranosyl]oxy]-2H-furo[2,3-c]oxacyclotetradecin-2,5,11,13(3H,6H,12H)-tetrone], the MIC with St. pneumoniae 1/4 is 2 mg/L (≈ 2.78 µM); in the assay with St. pneumoniae 1/1 it was at most 0.5 mg/L; in the assay with St. pneumoniae 12288 it was 16 mg/L (≈ 22.2 µM); in the assay on St. pneumoniae SL199T, 16 mg/L (≈ 22.2 µM); in the assay on S. aureus 1086 it was 0.5 mg/L (≈ 0.695 µM); in the assay on S. aureus ATCC29213, 0.5 mg/L (≈ 0.695 µM). The MIC with S. aureus 745 and with E. coli ATCC25922 was over 16 mg/L in each case. In assay [1], the “minimum inhibitory concentration (MIC)” value was over 16 mg/L.

With `CC[C@H]1OC(=O)[C@H](C)C(=O)[C@H](C)[C@@H](O[C@@H]2O[C@H](C)C[C@H](N(C)C)[C@H]2O)[C@](C)(OC)C[C@@H](C)C(=O)[C@H](C)[C@H]2[C@H](SCc3ccccc3)C(=O)O[C@@]21C` [Compound I-4, (3S,3aR,4R,6R,8R,9R,10R,12R,15R,15aS)-15-Ethyloctahydro-8-methoxy-4,6,8,10,12,15a-hexamethyl-3-[(phenylmethyl)thio]-9-[[3,4,6-trideoxy-3-(dimethylamino)-β-D-xylo-hexopyranosyl]oxy]-2H-furo[2,3-c]oxacyclotetradecin-2,5,11,13(3H,6H,12H)-tetrone], the MIC was 8 mg/L (≈ 10.9 µM) in the assay on St. pneumoniae 1/4; at most 0.5 mg/L with St. pneumoniae 1/1; 16 mg/L (≈ 21.8 µM) with St. pneumoniae 12288; 16 mg/L (≈ 21.8 µM) with St. pneumoniae SL199T; 1 mg/L (≈ 1.36 µM) with S. aureus 1086; 1 mg/L (≈ 1.36 µM) with S. aureus ATCC29213. Also, the MIC with S. aureus 745 and with E. coli ATCC25922 was over 16 mg/L in each case. Further, in assay [1], the “minimum inhibitory concentration (MIC)” value was over 16 mg/L.

As for `CC[C@H]1OC(=O)[C@H](C)C(=O)[C@H](C)[C@@H](O[C@@H]2O[C@H](C)C[C@H](N(C)C)[C@H]2O)[C@](C)(OC)C[C@@H](C)C(=O)[C@H](C)[C@H]2[C@H](SC)C(=O)O[C@@]21C` [Compound I-5, (3S,3aR,4R,6R,8R,9R,10R,12R,15R,15aS)-15-Ethyloctahydro-8-methoxy-4,6,8,10,12,15a-hexamethyl-3-[methylthio]-9-[[3,4,6-trideoxy-3-(dimethylamino)-β-D-xylo-hexopyranosyl]oxy]-2H-furo[2,3-c]oxacydotetradecin-2,5,11,13(3H,6H,12H)-tetrone], the “minimum inhibitory concentration (MIC)” value with St. pneumoniae 1/4 is 32 mg/L (≈ 48.6 µM); in the assay with St. pneumoniae 1/1, “<=0.5 μg/ml”; with St. pneumoniae 12288, over 32 mg/L; in the assay on St. pneumoniae SL199T, 16 mg/L (≈ 24.3 µM); in the assay with S. aureus 1086, 0.5 mg/L (≈ 0.76 µM); in the assay on S. aureus ATCC29213, 0.5 mg/L (≈ 0.76 µM). Besides, the “minimum inhibitory concentration (MIC)” value (with S. aureus 745; with E. coli ATCC25922; in assay [1]) was over 16 mg/L in each case.

As to `CC[C@H]1OC(=O)[C@H](C)C(=O)[C@H](C)[C@@H](O[C@@H]2O[C@H](C)C[C@H](N(C)C)[C@H]2O)[C@](C)(OC)C[C@@H](C)C(=O)[C@H](C)[C@H]2[C@H](SCCCc3ccccn3)C(=O)O[C@@]21C` [Compound I-10, (3S,3aR,4R,6R,8R,9R,10R,12R,15R,15aS)-15-Ethyloctahydro-8-methoxy-4,6,8,10,12,15a-hexamethyl-3-[[3-(2-pyridinyl)propyl]thio]-9-[[3,4,6-trideoxy-3-(dimethylamino)-β-D-xylo-hexopyranosyl]oxy]-2H-furo[2,3-c]oxacyclotetradecin-2,5,11,13(3H,6H,12H)-tetrone], the MIC with St. pneumoniae 1/4 is 0.25 mg/L (≈ 0.328 µM); in the assay on St. pneumoniae 1/1 it was at most 0.12 mg/L; in the assay on St. pneumoniae 12288, 8 mg/L (≈ 10.5 µM); in the assay on St. pneumoniae SL199T it was 2 mg/L (≈ 2.62 µM); in the assay with S. aureus 1086, at most 0.12 mg/L; in the assay on S. aureus ATCC29213, at most 0.12 mg/L. The MIC with S. aureus 745 and with E. coli ATCC25922 was over 16 mg/L throughout. Besides, in [1], the “minimum inhibitory concentration (MIC)” value was over 16 mg/L.

With `CC[C@H]1OC(=O)[C@H](C)C(=O)[C@H](C)[C@@H](O[C@@H]2O[C@H](C)C[C@H](N(C)C)[C@H]2O)[C@](C)(OC)C[C@@H](C)C(=O)[C@H](C)[C@H]2[C@H](SCCOc3ccccc3)C(=O)O[C@@]21C` [Compound I-11, (3S,3aR,4R,6R,8R,9R,10R,12R,15R,15aS)-15-Ethyloctahydro-8-methoxy-4,6,8,10,12,15a-hexamethyl-3-[[2-phenoxyethyl]thio]-9-[[3,4,6-trideoxy-3-(dimethylamino)-β-D-xylo-hexopyranosyl]oxy]-2H-furo[2,3-c]oxacyclotetradecin-2,5,11,13(3H,6H,12H)-tetrone], the MIC in the assay on St. pneumoniae 1/4 was 4 mg/L (≈ 5.24 µM); in the assay on St. pneumoniae 1/1 it was at most 0.5 mg/L; in the assay with St. pneumoniae 12288, 8 mg/L (≈ 10.5 µM); in the assay on St. pneumoniae SL199T, 4 mg/L (≈ 5.24 µM); in the assay on S. aureus 1086, at most 0.25 mg/L; in the assay with S. aureus ATCC29213, at most 0.25 mg/L. The MIC in the assay on S. aureus 745 and in the assay on E. coli ATCC25922 was over 16 mg/L each time. Moreover, the “minimum inhibitory concentration (MIC)” value in assay [1] is over 16 mg/L.

`CC[C@H]1OC(=O)[C@H](C)C(=O)[C@H](C)[C@@H](O[C@@H]2O[C@H](C)C[C@H](N(C)C)[C@H]2O)[C@](C)(OC)C[C@@H](C)C(=O)[C@H](C)[C@H]2[C@H](SCCn3cnc(-c4cccnc4)n3)C(=O)O[C@@]21C` [Compound I-17, (3S,3aR,4R,6R,8R,9R,10R,12R,15R,15aS)-15-Ethyloctahydro-8-methoxy-4,6,8,10,12,15a-hexamethyl-3-[[2-[3-(3-pyridinyl)-1H-1,2,4-triazol-1-yl]ethyl]thio]-9-[[3,4,6-trideoxy-3-(dimethylamino)-β-D-xylo-hexopyranosyl]oxy]-2H-furo[2,3-c]oxacyclotetradecin-2,5,11,13(3H,6H,12H)-tetrone]: the MIC was at most 0.12 mg/L in the assay on St. pneumoniae 1/4; at most 0.12 mg/L with St. pneumoniae 1/1; 1 mg/L (≈ 1.23 µM) in the assay on St. pneumoniae SL199T; at most 0.12 mg/L with S. aureus 1086; at most 0.12 mg/L with S. aureus ATCC29213; over 16 mg/L with S. aureus 745. Also, in the assay with E. coli ATCC25922, the MIC is over 16 mg/L. Further, the “minimum inhibitory concentration (MIC)” value in assay [1] was over 16 mg/L.

(Values after patent US6740642B2, “Macrolides with antibacterial activity” (BAsilea Parmaceutica AG, priority 2000, dated 2004).)
